# Laboratory results reported in patent US10960018B2, “Methods and compounds for stimulating read-through of premature termination codons” (The UAB Research Foundation, priority 2016, dated 2021).
# Marks after values point to notes of the source that are not given here.
# How the values were obtained:
# Format in all cases: cell-based, Rat
# FRT W1282X cells = experiment: Transepithelial chloride conductance assay in FRT W1282X cells; conditions: 48 hours; escin 10 μM, VX-809 3 μM, GP-5 10 μM, C1+C2 10 μM
# Method: (§1) Stably transfected FRT cells as described herein cells were seeded onto Costar 24-well […] permeable supports at a density of ˜2×10^6 cells/filter and maintained at 37° C. with 5% CO2. Transepithelial resistance was assessed using an epithelial voltmeter to ensure the formation of tight monolayers, as defined by resistance >6 kcm^2. During initial evaluation of agents, cells were treated with compounds (10 μM), vehicle control (0.3% DMSO), or positive control (250 μg/mL G418) for 48 hours before transepithelial conductance (Gt) was assessed; subsequent studies used other concentrations of compounds. Measurements were taken at baseline, after the addition of 20 μM forskolin (FSK, a cAMP agonist that stimulates CFTR activity) and 10 μM CFTRInh-172 (a CFTR-specific inhibitor).
# Individual assays were performed as described herein.
# As previously reported in the literature, the combination of CFTR correctors (such as VX-809) and CFTR potentiators (such as VX-770) act synergistically to improve CFTR function. […] Compounds alone or in the indicated combination were pre-incubated with FRT W1282X cells for 48 hours. During the assay the baseline conductance (Gt) was initially determined prior to the acute addition of forskolin (20 μM) and VX-770 (10 μM) to stimulate CFTR activity; the CFTR inhibitor, CFTRInh-172 (10 μM), was added to inhibit CFTR activity at the end of the assay. Enhancement of PTC read-through by the compounds of the present disclosure was determined by an increase in CFTR conductance. CFTR conductance also indicated the CFTR was functional as a result of the read-through of the PTC.
# Compounds alone or in the indicated combination were pre-incubated with FRT G542X cells for 48 hours. […] Enhancement of PTC read-through by the compounds of the present disclosure was determined by an increase in CFTR conductance. CFTR conductance also indicated the CFTR was functional as a result of the read-through of the PTC.
# It has been reported that aminoglycosides interfere with the action read-through stimulating compound. […] CFTR conductance also indicated the CFTR was functional as a result of the read-through of the PTC.
# Stimulation of CFTR activity was determined by an increase in CFTR conductance. […] During the assay the baseline conductance (Gt) was initially determined prior to the acute addition of forskolin (20 μM) and GP-5 (10 μM) to stimulate CFTR activity; the CFTR inhibitor, […] (10 μM), was added to inhibit CFTR activity at the end of the assay.
# The effect of the read-through stimulating compounds of the present disclosure in combination with the CFTR corrector VX-809 was further examined in FRT cells with the G542X, Y122X and W1282X mutations. […] CFTR conductance also indicated the CFTR was functional as a result of the read-through of the PTC.
# FRT G542X cells = experiment: Transepithelial chloride conductance (TECC) assay in FRT G542X cells; conditions: 48 hours; for forskolin-stimulated CFTR conductance vs vehicle control: 1 μM to 30 μM, P<0.05; for FRT G542X TECC Gt Mean ± SE: forskolin-stimulated
# Method: as §1
# In the TECC assay, FRT G542X cells were treated with a single dose (10 μM) of each compound. FRT G542X cells were incubated for 48 hours with the compounds prior or vehicle control (0.3% DMSO). During the assay the baseline conductance (Gt) was initially determined prior to the acute addition of forskolin (20 μM) and VX-770 (10 μM) to stimulate CFTR activity; the CFTR inhibitor, CFTRInh-172 (10 μM), was added to inhibit CFTR activity at the end of the assay. In these experiments, an increase in CFTR conductance indicates the compounds stimulated read-through of the PTC in the constructs tested and that the CFTR was functional.
# To prioritize which of the 48 read-through-positive compounds identified would be most efficacious in augmenting PTC read-through and restoring protein function, the TECC assay was repeated (in triplicate) using FRT G542X cells and FRT cells without CFTR (parental cells). Compounds (10 μM) or vehicle control (0.3% DMSO) were incubated for 48 hours with the cells. During the assay the baseline conductance (Gt) was initially determined prior to the acute addition of forskolin (20 μM) and VX-770 (10 μM) to stimulate CFTR activity; the CFTR inhibitor, CFTRInh-172 (10 μM), was added to inhibit CFTR activity at the end of the assay. G418 (250 μg/ml) was used as a positive control. In this assay, an increase in CFTR conductance indicates the compound stimulated read-through of the PTC in the constructs tested and that the CFTR was functional. The 48 compounds tested are provided in the Table 1 below (with the numerical designations corresponding to those shown in FIG. 4).
# A series of functional assays was performed to evaluate the efficacy of these lead compounds in greater detail. Using FRT G542X cells, the optimal dose of each compound in augmenting chloride conductance (FIG. 5A) was determined. FRT G542X cells were incubated with compound (1 μM to 30 μM), G418 (250 μg/mL) or vehicle control (0.3% DMSO) for 48 hours. The conductance assay was conducted as described in Example 2 above. In this assay, an increase in CFTR conductance indicates the compounds stimulated read-through of the PTC in the constructs tested and that the CFTR was functional.
# FRT QXN UGAC cells = experiment: Confirmatory dual luciferase assay (firefly/Renilla ratio); conditions: for FRT UGAC Dual Luciferase Firefly/Renilla Mean ± SD: 10 μM unless otherwise indicated
# Method: The basic features of the dual luciferase reporter system have been described previously (Grentzmann G, et al., RNA; 4: 479-486, 1998). […] These constructs were grown in the presence of lead compounds, vehicle control (0.3% DMSO), or positive control (250 μg/mL G418) for 24 hrs and the assay was performed as previously described (Xue X, et al., American journal of respiratory cell and molecular biology; 50: 805-816; 2014).
# In this assay, an increase in the luciferase ratio indicates the compounds stimulated read-through of the PTC in the constructs tested. FRT QXN UGAC cells were incubated with compound (0.01 μM to 10 μM), G418 (250 μg/mL) or vehicle control (0.3% DMSO) for 48 hours.
smiles,measurement,setting,value
Cc1ccc(NC(=O)C2(c3ccc4c(c3)OC(F)(F)O4)CC2)nc1-c1cccc(C(=O)O)c1 [VX-809],CFTR stimulation (conductance) in the presence of forskolin and GP-5,FRT W1282X cells,varying stimulatory effects
same,CFTR stimulation (conductance) in the presence of forskolin and GP-5,"FRT G542X cells; escin 10 μM, VX-809 3 μM, GP-5 10 μM, C1+C2 10 μM",non-significant effects
"C[C@@H]1C[C@@H]([C@H](O)CC2CC(=O)NC(=O)C2)C(=O)[C@@H](C)C1 [Cyclohexamide, CYCLOHEXIMIDE]",forskolin-stimulated CFTR conductance vs vehicle control,FRT G542X cells,significantly higher
same,FRT G542X TECC Gt Mean ± SE,FRT G542X cells; 3 μM (footnote b),"0.13 ± 0.06**^,b mS/cm^2"
same,FRT UGAC Dual Luciferase Firefly/Renilla Mean ± SD,FRT QXN UGAC cells,1.81 ± 0.01
"CCCOc1ccc2nc(NC(=O)OC)[nH]c2c1 [Oxibendazole, OXIBENDAZOLE]",forskolin-stimulated CFTR conductance vs vehicle control,FRT G542X cells,significantly higher
same,FRT G542X TECC Gt Mean ± SE,FRT G542X cells; 30 μM (footnote c),"0.16 ± 0.005****^,c mS/cm^2"
same,FRT UGAC Dual Luciferase Firefly/Renilla Mean ± SD,FRT QXN UGAC cells,1.34 ± 0.01
"COc1cccc2c1C(=O)c1c(O)c3c(c(O)c1C2=O)C[C@@](O)(C(=O)CO)C[C@@H]3O[C@H]1C[C@H](N)[C@H](O)[C@H](C)O1 [Doxorubicin, DOXORUBICIN]",FRT G542X TECC Gt Mean ± SE,FRT G542X cells; 10 μM,0.11 ± 0.01 mS/cm^2
same,concentration at which dual luciferase activity peaked,"FRT QXN UGAC cells; 0.01 μM to 10 μM, 48 hours",~1 µM
same,FRT UGAC Dual Luciferase Firefly/Renilla Mean ± SD,FRT QXN UGAC cells,1.99 ± 0.007
